Results taken from PMC3597608, “Yellow Fluorescent Protein-Based Assay to Measure GABAA Channel Activation and Allosteric Modulation in CHO-K1 Cells” (PLoS ONE, 2013).
Like-named read-outs stand apart in the source and are kept apart here.

Experiments:
human GABAA α2β3γ2 = molecular target: T1, human GABAA α2β3γ2 (Homo sapiens, UniProt P18507+P28472+P47869); experiment: cell-based; type: cell-based
T1 construct: expressed in transfected cells; host or cells: CHO-K1 (ATCC, CCL-61), transient electroporation with MaxCyte STX, cryopreserved assay-ready cells
Method: The cDNA of YFP (Genbank accession number AY818378) with H148Q and I152L mutations was inserted into the pcDNA3.1 vector using 5′ BamHI and 3′ NotI sites. Human GABAA subunits α2, β3 and γ2 (Genbank accession numbers; α2 NM_000807, β3 NM_000814, γ2 NM_000816) were inserted into pGen-IRES-neo2 vectors using NotI 5′ and 3′ sites.
CHO-K1 cell line (ATCC, CCL-61) was cultured in Ham's F-12 medium supplemented with 10% fetal bovine serum and incubated at 37°C and 5% CO2. Transient transfection was performed using MaxCyte STX electroporation instrument (MaxCyte, Inc.) with CHO cell line specific electroporation protocol. The cells were split one day prior to electroporation to ensure that cells were in the log phase growth at time of transfection. Cells were harvested with Accutase (PAA Laboratories), pelleted at 250 g for 10 minutes, rinsed with MaxCyte Electroporation Buffer (MaxCyte, Inc.), pelleted again and resuspended in MaxCyte Electroporation Buffer at a density of 1×10^8 cells/ml. CHO-K1 cells were electroporated simultaneously with four plasmids using a total amount of 300 µg DNA per 1×10^8 cells; YFP-H148Q/I152L (150 µg) and GABAA (72.5 µg α2, […] and 72.5 µg γ2) plasmids. Following electroporation, cells were incubated at 37°C and 5% CO2 for 20 minutes to recover. Cells were then diluted in culture medium and centrifuged 250 g for 10 minutes. Pelleted cells were resuspended to 5–10×10^6 cells/ml in Ham's F12 with 20% fetal bovine serum and 10% DMSO, and cryopreserved using controlled-rate cryo containers (Nalgene, Thermo Scientific). Cryopreserved assay-ready cells were used for all experiments.
Cryopreserved transiently transfected cells were thawed and plated in 384-well poly-D-lysine-coated plates at a density of 15000 cells/well using a Multidrop Combi Reagent Dispenser (Thermo Scientific). After 24 h incubation at 37°C and 5% CO2, cells were washed three times on an ELx405 Select Deep Well Microplate Washer (BioTEK), exchanging 50 µl culture medium with 30 µl HBSS buffer supplemented with 20 mM Hepes. Plates were incubated with buffer for 1 h at 37°C and 5% CO2. Cell plates were assayed on a FLIPR Tetra (Molecular Devices) using excitation filter of 470–495 nm and emission filter of 515–575 nm. Starting with 30 µl buffer in each well, cells were pre-incubated with 10 µl compound for 15 minutes. […] Compounds were initially solubilized to a concentration of 10 mM in DMSO and then diluted in HBSS buffer with 20 mM Hepes. Final DMSO concentration in the assay was 0.02% for modulators and at 1% for Picrotoxin and Bicuculline.
Data at 1–10 s was adjusted to a baseline of 100% and results were then extracted as % quench at 120 s. % quench is defined as (Finit – Ffinal)/Finit*100 where Finit and Ffinal are the initial and final values of fluorescence respectively. […] Curve fits were performed using least-squares fitting routine (GraphPad Prism 5, GraphPad Software Inc.).
The 95% confidence interval was calculated as 2× this standard error. Taking the anti-log converts this to a fold change (ratio) between two EC50 values.

[1] = tested on: α2β3γ2 ion channel subtype; design: method as in PMID 19090692; settings: VSD assay; cited from earlier work
GABA α2β3γ2 = tested on: GABA α2β3γ2; design: method as in PMID 14680756, PMID 16183706; settings: mouse fibroblast L(tk−) cells; cited from earlier work
[2] = 1 µM modulator, p<0.05, difference in pEC50 ≥0.15 significant

T1 sequence (P47869 29-451): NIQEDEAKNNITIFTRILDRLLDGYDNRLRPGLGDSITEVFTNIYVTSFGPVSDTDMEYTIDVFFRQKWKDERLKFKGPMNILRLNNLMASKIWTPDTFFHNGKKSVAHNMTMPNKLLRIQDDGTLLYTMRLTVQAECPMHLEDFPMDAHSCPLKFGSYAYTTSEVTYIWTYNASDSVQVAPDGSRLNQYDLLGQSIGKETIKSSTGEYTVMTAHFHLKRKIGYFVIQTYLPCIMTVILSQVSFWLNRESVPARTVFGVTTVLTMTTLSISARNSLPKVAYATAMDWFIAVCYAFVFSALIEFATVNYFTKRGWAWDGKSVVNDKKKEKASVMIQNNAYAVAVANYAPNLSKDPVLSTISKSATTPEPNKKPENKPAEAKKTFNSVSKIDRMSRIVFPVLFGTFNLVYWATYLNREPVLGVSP
T1 sequence (P28472 26-473): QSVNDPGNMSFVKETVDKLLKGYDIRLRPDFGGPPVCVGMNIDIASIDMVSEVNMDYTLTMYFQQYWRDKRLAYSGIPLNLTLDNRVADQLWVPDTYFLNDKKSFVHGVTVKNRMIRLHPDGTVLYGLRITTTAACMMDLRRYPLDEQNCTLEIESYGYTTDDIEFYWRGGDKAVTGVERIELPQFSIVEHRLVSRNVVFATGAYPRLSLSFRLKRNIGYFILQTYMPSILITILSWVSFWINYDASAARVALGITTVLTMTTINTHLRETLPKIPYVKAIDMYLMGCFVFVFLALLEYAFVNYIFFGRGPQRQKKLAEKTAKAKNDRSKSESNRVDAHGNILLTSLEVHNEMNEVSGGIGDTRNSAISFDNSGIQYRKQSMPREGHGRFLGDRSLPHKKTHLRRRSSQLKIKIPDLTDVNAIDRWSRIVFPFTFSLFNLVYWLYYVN
T1 sequence (P18507 40-467 isoform P18507-1 limits assumed): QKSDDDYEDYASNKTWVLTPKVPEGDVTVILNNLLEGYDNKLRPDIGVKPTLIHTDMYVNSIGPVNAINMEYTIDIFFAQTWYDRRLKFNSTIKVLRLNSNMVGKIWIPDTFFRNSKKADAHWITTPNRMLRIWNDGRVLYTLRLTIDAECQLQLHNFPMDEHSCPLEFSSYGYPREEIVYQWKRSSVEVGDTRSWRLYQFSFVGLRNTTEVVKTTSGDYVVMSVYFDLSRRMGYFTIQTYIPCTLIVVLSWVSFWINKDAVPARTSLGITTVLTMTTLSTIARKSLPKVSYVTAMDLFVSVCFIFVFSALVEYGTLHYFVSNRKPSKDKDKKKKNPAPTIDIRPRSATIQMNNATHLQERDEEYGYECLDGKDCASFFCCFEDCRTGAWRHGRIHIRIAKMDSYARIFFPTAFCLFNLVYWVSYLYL

## CCCN(CCC)C(=O)Cc1c(-c2ccc(Cl)cc2)nc2ccc(Cl)cn12 [Alpidem]
Human GABAA α2β3γ2; 1 µM modulator, 95% confidence
  allosteric effect on GABA: significant positive allosteric effect
Human GABAA α2β3γ2; [2]
  Significance 95% confidence of pEC50 difference vs GABA alone: Significant difference

## CN1CCc2cc3c(cc2[C@H]1[C@@H]1OC(=O)c2c1ccc1c2OCO1)OCO3 [Bicuculline]
Human GABAA α2β3γ2
  IC50: 2140 nM

## CN1C(=O)CC(=O)N(c2ccccc2)c2cc(Cl)ccc21 [Clobazam]
Human GABAA α2β3γ2; 1 µM modulator, 95% confidence
  allosteric effect on GABA: significant positive allosteric effect
Human GABAA α2β3γ2; [2]
  Significance 95% confidence of pEC50 difference vs GABA alone: Significant difference

## O=C1CC(=O)N(c2ccccc2)c2cc(Cl)ccc2N1 [Desmethyl-clobazam]
Human GABAA α2β3γ2; [2]
  Significance 95% confidence of pEC50 difference vs GABA alone: non-significant

## CN1C(=O)CN=C(c2ccccc2)c2cc(Cl)ccc21 [Diazepam]
Human GABAA α2β3γ2
  GABA EC50 shift: 1.7 fold
  Significance 95% confidence of pEC50 difference vs GABA alone: Significant difference
  allosteric effect on GABA: significant positive allosteric effect
  modulation of GABA EC20 quench: significant increase
[1]
  pEC50 difference (GABA with modulator vs GABA alone): 0.41

## Cn1ncnc1COc1nn2c(-c3cc(F)ccc3F)nnc2cc1C(C)(C)C [L-838417]
Human GABAA α2β3γ2; 1 µM modulator, 95% confidence
  allosteric effect on GABA: not able to detect any significant allosteric modulation
Human GABAA α2β3γ2; [2]
  Significance 95% confidence of pEC50 difference vs GABA alone: non-significant
[1]
  modulation of GABA signal: detected modulation of GABA signal
GABA α2β3γ2
  relative in vitro efficacy, potentiation of GABA EC20 compared to 100% response from chlordiazepoxide: 34%

## O=C1Nc2ccc(Cl)cc2C(c2ccccc2Cl)=NC1O (centres unmarked) [Lorazepam]
Human GABAA α2β3γ2; 1 µM modulator, 95% confidence
  allosteric effect on GABA: significant positive allosteric effect
Human GABAA α2β3γ2; [2]
  Significance 95% confidence of pEC50 difference vs GABA alone: Significant difference

## CCn1ncnc1COc1nn2c(-c3ccccc3F)nnc2cc1C(C)(C)C [TPA-023, 7-(1,1-dimethylethyl)-6-(2-ethyl-2H-1,2,4-triazol-3-ylmethoxy)-3-(2-fluorophenyl)-1,2,4-triazolo z[4,3-b]pyridazine]
Human GABAA α2β3γ2; 1 µM modulator, 95% confidence
  allosteric effect on GABA: not able to detect any significant allosteric modulation
Human GABAA α2β3γ2; [2]
  Significance 95% confidence of pEC50 difference vs GABA alone: non-significant
Human GABAA α2β3γ2; EC20 of GABA with 1 µM modulator, 10 mM I−
  modulation of GABA EC20 quench: No significant change
GABA α2β3γ2
  relative in vitro efficacy, potentiation of GABA EC20 compared to 100% response from chlordiazepoxide: 11%

## Picrotoxin
Human GABAA α2β3γ2; 100 µM, 15 min prior to buffer with different I− concentrations
  effect on basal (agonist-independent) YFP quench: reduced basal quench to background levels
Human GABAA α2β3γ2; 1 mM, EC80 of GABA in 10 mM NaI buffer
  effect on YFP quench in cells activated with EC80 of GABA: blocked YFP quench
